How the values were obtained:
[1] = tested on: Green Peach Aphid (Myzus persicae) (MYZUPE); assay: Bioassay on Green Peach Aphid (GPA), foliar spray on cabbage seedlings; assay type: in vivo; conditions: 200 ppm spray on cabbage leaves, graded after three days, live aphids, Abbott's correction
Procedure: Several molecules disclosed herein were tested against GPA using procedures described below.
Cabbage seedling grown in 3-in pots, with 2-3 small (3-5 cm) true leaves, were used as test substrate. The seedlings were infested with […] (wingless adult and nymph stages) one day prior to chemical application. Four pots with individual seedlings were used for each treatment. Test compounds (2 mg) were dissolved in 2 mL of acetone/MeOH (1:1) solvent, forming stock solutions of 1000 ppm test compound. The stock solutions were diluted 5× with 0.025% Tween 20 in water to obtain the solution at 200 ppm test compound. A hand-held aspirator-type sprayer was used for spraying a solution to both sides of the cabbage leaves until runoff. Reference plants (solvent check) were sprayed with the diluent only containing 20% by volume acetone/MeOH (1:1) solvent. Treated plants were held in a holding room for three days at approximately 25° C. and ambient relative humidity (RH) prior to grading. Evaluation was conducted by counting the number of live aphids per plant under a microscope. Percent Control was measured by using Abbott's correction formula (W. S. Abbott, “A Method of Computing the Effectiveness of an Insecticide” J. Econ. Entomol 18 (1925), pp. 265-267) as follows. Corrected % Control=100*(X−Y)/X • where • X=No. of live aphids on solvent check plants and • Y=No. of live aphids on treated plants
The results are indicated in the table entitled “Table 1: GPA (MYZUPE) and sweetpotato whitefly-crawler (BEMITA) Rating Table”.

[2] = tested on: Sweetpotato Whitefly Crawler (Bemisia tabaci) (BEMITA); assay: Bioassay on Sweetpotato Whitefly Crawler, foliar spray on cotton plants; assay type: in vivo; conditions: 200 ppm spray on cotton leaf, graded after 8-9 days, live nymphs, Abbott's correction
Procedure: Cotton plants grown in 3-inch pots, with 1 small (3-5 cm) true leaf, were used at test substrate. The plants were placed in a room with whitely adults. Adults were allowed to deposit eggs for 2-3 days. After a 2-3 day egg-laying period, plants were taken from the adult whitefly room. Adults were blown off leaves using a hand-held Devilbliss sprayer (23 psi). Plants with egg infestation (100-300 eggs per plant) were placed in a holding room for 5-6 days at 82° F. and 50% RH for egg hatch and crawler stage to develop. Four cotton plants were used for each treatment. Compounds (2 mg) were dissolved in 1 mL of acetone solvent, forming stock solutions of 2000 ppm. The stock solutions were diluted 10× with 0.025% Tween 20 in water to obtain a test solution at 200 ppm. A hand-held Devilbliss sprayer was used for spraying a solution to both sides of cotton leaf until runoff. Reference plants (solvent check) were sprayed with the diluent only. Treated plants were held in a holding room for 8-9 days at approximately 82° F. and 50% RH prior to grading. Evaluation was conducted by counting the number of live nymphs per plant under a microscope.

Row | Compound | MYZUPE rating (% Control of Mortality) [1] | BEMITA rating (% Control of Mortality) [2]
1 | O=C(CCSCCC(F)(F)F)Nc1c[nH]nc1Cl [Compound 2.3, N-(3-chloro-1H-pyraxol-4-yl)-3-((3,3,3,trifluoropropyl)thio)propanamide] | B (More than 0-Less than 80) | B (More than 0-Less than 80)
2 | CCN(C(=O)CCSCCC(F)(F)F)c1cn(-c2cccnc2)nc1Cl [Compound 6.3, N-(3-chloro-1-(pyridin-3-yl)-1H-pyrazol-4-yl)-N-ethyl-3-((3,3,3-trifluoropropyl)thio)propanamide] | A (80-100) | A (80-100)
3 | CCN(C(=O)CC[S+]([O-])CCC(F)(F)F)c1cn(-c2cccnc2)nc1Cl (stereo not shown) [Compound 7.3, N-(3-chloro-1-(pyridin-3-yl)-1H-pyrazol-4-yl)-N-ethyl-3-((3,3,3-trifluoropropyl)sulfoxo)propanamide] | A (80-100) | A (80-100)
4 | O=C(CCSCCC(F)(F)F)Nc1cn(-c2cccnc2)nc1Cl [Compound 5.3, N-(3-chloro-1-(pyridin-3-yl)-1H-pyrazol-4-yl)-3-((3,3,3-trifluoropropyl)thio)propanamide] | A (80-100) | B (More than 0-Less than 80)
5 | Cl.Nc1c[nH]nc1Cl [Compound 1a, 3-chloro-1H-pyrazol-4-amine Hydrochloride] | B (More than 0-Less than 80) | B (More than 0-Less than 80)
